Values of other authors as cited in patent US7901689B2, “Chimeric peptides as immunogens, antibodies thereto, and methods for immunization using chimeric peptides or antibodies” (Intellect Neurosciences, Inc., priority 1999, dated 2011).

Experiments:
[1] = system: Aβ-induced toxicity in cultured neurons; conditions: Yankner et al., 1995
[2] = system: Alzheimer's disease-like pathology in PDAPP transgenic mice; conditions: Schenk et al. 1999
Aβ production = conditions: Knops et al., 1995, Haass et al., read-out: EC50 for inhibition of Aβ production

Nc1c(/N=N/c2ccc(-c3ccc(/N=N/c4cc(S(=O)(=O)O)c5ccccc5c4N)cc3)cc2)cc(S(=O)(=O)O)c2ccccc12 [Congo Red]
Aβ-induced toxicity in cultured neurons [1]: completely inhibits

amyloid-β: intact amyloid-β used as immunogen by Schenk et al. (1999)
development of β-amyloid plaque formation, neuritic dystrophy and astragliosis ([2]; immunization of young animals prior to onset of neuropathologies): essentially prevented | extent and progression of Alzheimer's disease-type neuropathologies ([2]; treatment in older animals after onset of neuropathologies): reduce the extent and progression

CO/C1=C\C(C)=C\[C@@H](C)[C@@H](O)[C@@H](C)C/C(C)=C/C=C/[C@H](OC)[C@@H]([C@@H](C)[C@@H](O)[C@H](C)[C@@]2(O)C[C@@H](O)[C@H](C)[C@@H](C(C)C)O2)OC1=O [Bafilomycin]
EC50 (Aβ production): ~50 nM
